In this assay the test system is human plasma rich in platelet. The assay is described as follows: Platelet coagulation-inhibitory activity in vitro (aggregometer, ADP or collagen stimulation). The format is cell-based. As to the method:
The platelet coagulation-inhibitory effect of the compounds of the present invention was assayed, in vitro, using human plasma rich in platelet. The experimental method will be described below.
To fresh human blood, there was added 1/9 volume of a 3.8% sodium citrate solution, the resulting mixture was centrifuged (1000 rpm; for 10 minutes) and the upper layer was separated as a plasma rich in platelet. The propenamide derivatives, the polymers thereof, the copolymers thereof or salts thereof obtained through lyophilization were dissolved in physiological saline to give a plurality of solutions having various concentrations ranging from 0 to 1.5 mg/ml. Each of the solutions (25 μl) was added to 200 μl of the plasma, incubated at 37° C. for 3 minutes, then a 50 μM of ADP (adenosine diphosphate) solution or a 200 μg/ml collagen solution was added to determine the extent of coagulation in terms of transmittance determined by an aggregometer.
Rate of Coagulation Inhibition=(1-T/T0)×100%
T0 : Transmittance observed when the propenamide derivatives, the polymers thereof, the copolymers thereof or salts thereof were not added.
T: Transmittance observed when the propenamide derivatives, the polymers thereof, the copolymers thereof or salts thereof were added.

Consider “trimethylammonioethyl methacrylamide [Preparation product 14]”, for which the “Platelet Coagulation-Inhibitory Activity IC50 ADP Stimulation” value (ADP Stimulation) was “C (more than 80)”. Further, the “Platelet Coagulation-Inhibitory Activity IC50 Collagen Stimulation” value (Collagen Stimulation) is reported as “C (more than 80)”.

These data come from patent publication US6046289A, “Propenamide derivatives containing Arg-Gly-Asp polymers obtained therefrom” (priority 1990, dated 2000).
